Laboratory results taken from patent US20140154332A1, “FORMULAS COMPRISING HIGHLY SOLUBLE ELEMENTS AND VITAMIN FOR THE PREVENTION AND AMELIORATION OF OSTEOPOROSIS” (SINOVEDA CANADA, INC., priority 2011, published 2014).

Tests used:
[1] = dual isotope techniques; cited from earlier work
[2] = rats; cited from earlier work
[3] = humans; cited from earlier work
[4] = 25 mg calcium load, 45Ca; cited from earlier work
[5] = Calcium, magnesium and zinc balance study in rats receiving normal diet (cumulative net percentage, body weight, plasma levels); settings: for Body weight of rats: normal calcium diet, n = 5; for Cumulative net percentage of calcium / Cumulative net percentage of zinc / Net accumulative percentage of magnesium: normal diet, n = 5 per group
From the text: (§1) Male Sprague-Dawley rats (about 6-7 weeks), with an initial weight between 220 g to 250 g, were randomly divided into different treatment groups. All the rats were housed in individual metabolic cages in a temperature-controlled room. Each rat received free access to the normal diet (Table 34) before the experiment. Both normal and calcium free diets (Table 34) were used in this set of studies. De-ionized water was provided ad libitum. All the rats were weighed before treatment.
(§2) Two sets of studies were performed: a normal diet and calcium free diet. In each study, there were seven treatment groups. […] Rats participating in the normal diet study received normal diet ad libitum throughout. Rats participating in the group of calcium free diet received the calcium free food ad libitum starting five days before and throughout treatment. In both study groups, animals received one dose a day for five days. Amounts of calcium, magnesium and zinc in individual formulation and in each diet were determined using ICP-OES. Values of dosage and dietary intake were measured for the calculation of elemental balance. […] Daily elemental dosages, similar to that of human's, are 53.14 mg/kg for calcium, 0.38 to 55 mg/kg/day for magnesium and 0.017 to 2.5 mg/kg/day for zinc. […] The vehicle for preparing each dose was de-ionized water. The concentration of calcium in all dosage preparations was 15.94 mg/mL. One mL of each preparation was administered by gavage. Body weight, elemental dosage and diet consumption were recorded daily.
(§3) Animals were housed individually in a metabolic cage five days before the study. Food consumption was evaluated daily. Urine and feces were collected daily for four days and the content of calcium, magnesium and zinc was determined. On Day 5, each animal received its treatment. These treatments were administered once a day for four days. After the last treatment, each animal was anesthetized shortly before peak elemental blood concentration was achieved. Blood was collected using a heparinized syringe via cardiac puncture. Immediately after blood collection, the animal was then sacrificed with an overdose of isoflourane. Each blood sample was centrifuged at 1900 rpm at room temperature; plasma was harvested and stored at −20° C. until analysis. Urine was measured daily; it was diluted with de-ionized water, filtered and an aliquot was stored at −20° C. until analysis. Daily fecal output was collected and lyophilized. Each sample was weighed and digested using a mixture of three volume of nitric acid and one volume of perchloric acid. For every gram of dried feces, 10 mL of acid mixture was added. Each sample was digested for three days. The volume of the digested sample was measured and an aliquot of the digest was stored at −20° C. until analysis. The content of calcium, magnesium and zinc in plasma, feces and urine were determined using ICP-OES.
(§4) Daily calcium balance was calculated using equation 1:
(§5) Ca Balance=total Ca intake(dose and dietary intake)−Ca excreted in urine−Ca excreted in feces (1)
(§6) While, percentage of Ca balance was determined using equation 2:
(§7) % Ca balance=Ca balance/(total Ca intake)×100% (2)
(§8) Cumulated calcium balance and % cumulated net calcium balance were calculated using equations (1) and (2), except, the sum of daily intake and excretion was used for calculation. The balance for magnesium and zinc was also calculated using the concept of equations (1) and (2). Cumulated elemental balance and % cumulated net elemental balance were calculated in a similar fashion as described above.
(§9) All results were analyzed using two-way ANOVA. […] The data are presented as mean±S.D. and mean±S.E.M. in tables and figures, respectively.

[6] = Calcium, magnesium and zinc balance study in rats receiving calcium free diet (cumulative net percentage, body weight, plasma levels); settings: for Cumulative net percentage of calcium / Cumulative net percentage of magnesium / Cumulative net percentage of zinc: n = 5 per group
From the text: as §1, §2, §3, §4, §5, §6, §7, §8, §9

Molecule: [O]=[Zn] [zinc oxide]
- bioavailability of zinc [1]: approximately 24%

Molecule: Magnesium gluconate
- bioavailability of magnesium [2]: highest value

Molecule: O=C([O-])[O-].[Ca+2] [calcium carbonate]
- average amount absorbed [3]: 24%

Molecule: Calcium Acetate [Ca ACE]
- Bioavailability of calcium [4]: 45%
- Body weight of rats ([5]; Day 1, mean ± S.D.): 242.0 ± 7.4 g
- Body weight of rats ([5]; Day 2, mean ± S.D.): 237.0 ± 12.5 g
- Body weight of rats ([5]; Day 3, mean ± S.D.): 239.2 ± 13.9 g
- Body weight of rats ([5]; Day 4, mean ± S.D.): 238.6 ± 13.9 g
- Body weight of rats ([5]; Day 5, mean ± S.D.): 244.0 ± 12.8 g
- Cumulative net percentage of calcium ([5]; Day 1, mean ± S.D.): 14.4 ± 24.0%
- Cumulative net percentage of zinc ([5]; Day 1, mean ± S.D.): 27.5 ± 16.0^%
- Net accumulative percentage of magnesium ([5]; Day 1, mean ± S.D.): 16.7 ± 17.2^%
- Cumulative net percentage of calcium ([5]; Day 2, mean ± S.D.): 26.9 ± 9.0%
- Cumulative net percentage of zinc ([5]; Day 2, mean ± S.D.): 40.9 ± 7.3%
- Net accumulative percentage of magnesium ([5]; Day 2, mean ± S.D.): 29.9 ± 3.8%
- Cumulative net percentage of calcium ([5]; Day 3, mean ± S.D.): 30.3 ± 4.9%
- Cumulative net percentage of zinc ([5]; Day 3, mean ± S.D.): 45.6 ± 5.9%
- Net accumulative percentage of magnesium ([5]; Day 3, mean ± S.D.): 34.3 ± 2.5%
- Cumulative net percentage of calcium ([5]; Day 4, mean ± S.D.): 31.9 ± 3.0%
- Cumulative net percentage of zinc ([5]; Day 4, mean ± S.D.): 48.4 ± 4.4%
- Net accumulative percentage of magnesium ([5]; Day 4, mean ± S.D.): 37.7 ± 2.7%
- Cumulative net percentage of calcium ([6]; Day 1, mean ± S.D.): −30.6 ± 51.3%
- Cumulative net percentage of magnesium ([6]; Day 1, mean ± S.D.): −197.2 ± 105.2%
- Cumulative net percentage of zinc ([6]; Day 1, mean ± S.D.): −107.1 ± 85.5%
- Body weight of rats ([6]; Day 1, n = 5): 202.4 ± 9.3 g
- Cumulative net percentage of calcium ([6]; Day 2, mean ± S.D.): −9.88 ± 26.5%
- Cumulative net percentage of magnesium ([6]; Day 2, mean ± S.D.): −150.4 ± 88.9%
- Cumulative net percentage of zinc ([6]; Day 2, mean ± S.D.): −77.7 ± 59.0%
- Body weight of rats ([6]; Day 2, n = 5): 194.8 ± 9.3^$ g
- Cumulative net percentage of calcium ([6]; Day 3, mean ± S.D.): 4.88 ± 24.0%
- Cumulative net percentage of magnesium ([6]; Day 3, mean ± S.D.): −115.3 ± 62.7%
- Cumulative net percentage of zinc ([6]; Day 3, mean ± S.D.): −65.7 ± 66.7%
- Body weight of rats ([6]; Day 3, n = 5): 196.8 ± 10.9 g
- Cumulative net percentage of calcium ([6]; Day 4, mean ± S.D.): 11.1 ± 20.0%
- Cumulative net percentage of magnesium ([6]; Day 4, mean ± S.D.): −93.6 ± 37.2%
- Cumulative net percentage of zinc ([6]; Day 4, mean ± S.D.): −50.5 ± 46.4%
- Body weight of rats ([6]; Day 4, n = 5): 193.4 ± 11.9^$ g
- Body weight of rats ([6]; Day 5, n = 5): 188.0 ± 12.2^$ g
- magnesium balance ([6]; rats): net loss of magnesium

Molecule: calcium ascorbate
- Bioavailability of calcium [4]: 70%
